Converted amounts (≈) assume the structure as drawn.
Assays:
Assay type in all cases: functional
[1] = Antibacterial activity against Bacillus proteus ATCC 13315 by micro broth dilution method
Shigella dysenteriae = test: Antibacterial activity against Shigella dysenteriae by micro broth dilution method
Staphylococcus aureus [2] = test: Antibacterial activity against Staphylococcus aureus ATCC 25923 by micro broth dilution method
Escherichia coli [3] = test: Antibacterial activity against Escherichia coli DH52 by micro broth dilution method
Saccharomyces cerevisiae = test: Antifungal activity against Saccharomyces cerevisiae ATCC 9763 after 24 hrs by micro broth dilution method; conditions: ATCC 9763, 24 h
Aspergillus flavus = test: Antifungal activity against Aspergillus flavus ATCC 204304 after 24 hrs by micro broth dilution method; conditions: ATCC 204304, 24 h
Candida albicans = test: Antifungal activity against Candida albicans ATCC 10231 after 24 hrs by micro broth dilution method; conditions: ATCC 10231, 24 h
Salmonella enterica = test: Antibacterial activity against Salmonella enterica ATCC 14028 by micro broth dilution method
Staphylococcus aureus [4] = test: Antibacterial activity against methicillin-resistant Staphylococcus aureus N315 by micro broth dilution method
[5] = Antifungal activity against Candida mycoderma ATCC 9888 after 24 hrs by micro broth dilution method; conditions: Candida vini
Bacillus spizizenii = test: Antibacterial activity against Bacillus subtilis ATCC 6633 by micro broth dilution method
Pseudomonas aeruginosa = test: Antibacterial activity against Pseudomonas aeruginosa ATCC 27853 by micro broth dilution method
Micrococcus luteus = test: Antibacterial activity against Micrococcus luteus ATCC 4698 by micro broth dilution method; conditions: NCTC 2665
Cyberlindnera jadinii = test: Antifungal activity against Candida utilis ATCC 9950 after 24 hrs by micro broth dilution method; conditions: Williopsis jadinii, ATCC 9950, 24 h
Escherichia coli [6] = test: Antibacterial activity against Escherichia coli JM109 by micro broth dilution method

Structure (SMILES)	MIC [1] [µg/mL]	MIC (Shigella dysenteriae) [µg/mL]	MIC (Staphylococcus aureus [2]) [µg/mL]	MIC (Escherichia coli [3]) [µg/mL]	MIC80 (Saccharomyces cerevisiae) [µg/mL]	MIC80 (Aspergillus flavus) [µg/mL]	MIC80 (Candida albicans) [µg/mL]	MIC (Salmonella enterica) [µg/mL]	MIC (Staphylococcus aureus [4]) [µg/mL]	MIC80 [5] [µg/mL]	MIC (Bacillus spizizenii) [µg/mL]	MIC (Pseudomonas aeruginosa) [µg/mL]	MIC (Micrococcus luteus) [µg/mL]	MIC80 (Cyberlindnera jadinii) [µg/mL]	MIC (Escherichia coli [6]) [µg/mL]
O=C(O)c1cn(C2CC2)c2cc(N3CCN(Cc4nc5ccccc5n4Cc4ccccc4F)CC3)c(F)cc2c1=O	1 (≈ 1.76 µM)	4 (≈ 7.02 µM)	16 (≈ 28.1 µM)	1 (≈ 1.76 µM)	32 (≈ 56.2 µM)	16 (≈ 28.1 µM)	32 (≈ 56.2 µM)	0.25 (≈ 0.439 µM)	0.25 (≈ 0.439 µM)	16 (≈ 28.1 µM)	8 (≈ 14 µM)	2 (≈ 3.51 µM)	0.25 (≈ 0.439 µM)	8 (≈ 14 µM)	2 (≈ 3.51 µM)
CCCn1c(CN2CCN(c3cc4c(cc3F)c(=O)c(C(=O)O)cn4CC)CC2)nc2ccccc21	128 (≈ 260 µM)	32 (≈ 65.1 µM)	256 (≈ 521 µM)	32 (≈ 65.1 µM)	32 (≈ 65.1 µM)	32 (≈ 65.1 µM)	32 (≈ 65.1 µM)	16 (≈ 32.5 µM)	16 (≈ 32.5 µM)	2 (≈ 4.07 µM)	2 (≈ 4.07 µM)	32 (≈ 65.1 µM)	8 (≈ 16.3 µM)	32 (≈ 65.1 µM)	128 (≈ 260 µM)
O=C(O)c1cn(C2CC2)c2cc(N3CCN(Cc4nc5ccccc5[nH]4)CC3)c(F)cc2c1=O	0.125 (≈ 0.271 µM)	1 (≈ 2.17 µM)	0.25 (≈ 0.542 µM)	0.125 (≈ 0.271 µM)	0.0625 (≈ 0.135 µM)	0.5 (≈ 1.08 µM)	0.0625 (≈ 0.135 µM)	0.125 (≈ 0.271 µM)	0.125 (≈ 0.271 µM)	0.125 (≈ 0.271 µM)	0.125 (≈ 0.271 µM)	0.5 (≈ 1.08 µM)	0.125 (≈ 0.271 µM)	0.125 (≈ 0.271 µM)	0.5 (≈ 1.08 µM)
CCCCCCCCCCCCn1c(CN2CCN(c3cc4c(cc3F)c(=O)c(C(=O)O)cn4C3CC3)CC2)nc2ccccc21	4 (≈ 6.35 µM)	2 (≈ 3.18 µM)	32 (≈ 50.8 µM)	8 (≈ 12.7 µM)	8 (≈ 12.7 µM)	4 (≈ 6.35 µM)	64 (≈ 102 µM)	16 (≈ 25.4 µM)	64 (≈ 102 µM)	4 (≈ 6.35 µM)	4 (≈ 6.35 µM)	4 (≈ 6.35 µM)	4 (≈ 6.35 µM)	32 (≈ 50.8 µM)	16 (≈ 25.4 µM)
CCn1cc(C(=O)O)c(=O)c2cc(F)c(N3CCN(Cc4nc5ccccc5n4Cc4cccc(F)c4)CC3)cc21	4 (≈ 7.17 µM)	1 (≈ 1.79 µM)	128 (≈ 230 µM)	128 (≈ 230 µM)	2 (≈ 3.59 µM)	2 (≈ 3.59 µM)	64 (≈ 115 µM)	8 (≈ 14.3 µM)	32 (≈ 57.4 µM)	64 (≈ 115 µM)	128 (≈ 230 µM)	8 (≈ 14.3 µM)	64 (≈ 115 µM)	32 (≈ 57.4 µM)	128 (≈ 230 µM)
CCCCCCn1c(CN2CCN(c3cc4c(cc3F)c(=O)c(C(=O)O)cn4C3CC3)CC2)nc2ccccc21	16 (≈ 29.3 µM)	64 (≈ 117 µM)	256 (≈ 469 µM)	16 (≈ 29.3 µM)	128 (≈ 235 µM)	128 (≈ 235 µM)	16 (≈ 29.3 µM)	16 (≈ 29.3 µM)	128 (≈ 235 µM)	8 (≈ 14.7 µM)	16 (≈ 29.3 µM)	16 (≈ 29.3 µM)	32 (≈ 58.6 µM)	32 (≈ 58.6 µM)	64 (≈ 117 µM)
O=C(O)c1cn(C2CC2)c2cc(N3CCN(Cc4nc5ccccc5n4Cc4cccc(F)c4)CC3)c(F)cc2c1=O	128 (≈ 225 µM)	256 (≈ 449 µM)	256 (≈ 449 µM)	256 (≈ 449 µM)	128 (≈ 225 µM)	16 (≈ 28.1 µM)	64 (≈ 112 µM)	4 (≈ 7.02 µM)	8 (≈ 14 µM)	64 (≈ 112 µM)	32 (≈ 56.2 µM)	16 (≈ 28.1 µM)	64 (≈ 112 µM)	256 (≈ 449 µM)	256 (≈ 449 µM)
O=C(O)c1cn(C2CC2)c2cc(N3CCN(c4nc5ccccc5[nH]4)CC3)c(F)cc2c1=O	2 (≈ 4.47 µM)	0.5 (≈ 1.12 µM)	1 (≈ 2.23 µM)	1 (≈ 2.23 µM)	1 (≈ 2.23 µM)	1 (≈ 2.23 µM)	2 (≈ 4.47 µM)	1 (≈ 2.23 µM)	0.5 (≈ 1.12 µM)	16 (≈ 35.8 µM)	2 (≈ 4.47 µM)	0.5 (≈ 1.12 µM)	1 (≈ 2.23 µM)	4 (≈ 8.94 µM)	2 (≈ 4.47 µM)
CCn1cc(C(=O)O)c(=O)c2cc(F)c(N3CCN(Cc4nc5ccccc5[nH]4)CC3)cc21	0.5 (≈ 1.11 µM)	2 (≈ 4.45 µM)	2 (≈ 4.45 µM)	0.5 (≈ 1.11 µM)	0.5 (≈ 1.11 µM)	0.5 (≈ 1.11 µM)	0.5 (≈ 1.11 µM)	0.5 (≈ 1.11 µM)	1 (≈ 2.22 µM)	1 (≈ 2.22 µM)	1 (≈ 2.22 µM)	1 (≈ 2.22 µM)	1 (≈ 2.22 µM)	0.5 (≈ 1.11 µM)	4 (≈ 8.9 µM)
CCn1cc(C(=O)O)c(=O)c2cc(F)c(N3CCN(Cc4nc5ccccc5n4Cc4ccc([N+](=O)[O-])cc4)CC3)cc21	16 (≈ 27.4 µM)	4 (≈ 6.84 µM)	4 (≈ 6.84 µM)	16 (≈ 27.4 µM)	4 (≈ 6.84 µM)	8 (≈ 13.7 µM)	4 (≈ 6.84 µM)	4 (≈ 6.84 µM)	8 (≈ 13.7 µM)	16 (≈ 27.4 µM)	2 (≈ 3.42 µM)	4 (≈ 6.84 µM)	4 (≈ 6.84 µM)	4 (≈ 6.84 µM)	8 (≈ 13.7 µM)
CCCCCn1c(CN2CCN(c3cc4c(cc3F)c(=O)c(C(=O)O)cn4CC)CC2)nc2ccccc21	8 (≈ 15.4 µM)	128 (≈ 246 µM)	512 (≈ 985 µM)	8 (≈ 15.4 µM)	64 (≈ 123 µM)	64 (≈ 123 µM)	4 (≈ 7.7 µM)	256 (≈ 493 µM)	64 (≈ 123 µM)	8 (≈ 15.4 µM)	32 (≈ 61.6 µM)	64 (≈ 123 µM)	16 (≈ 30.8 µM)	32 (≈ 61.6 µM)	128 (≈ 246 µM)
CCCCCCCCCCCCCCCCCCn1c(CN2CCN(c3cc4c(cc3F)c(=O)c(C(=O)O)cn4C3CC3)CC2)nc2ccccc21	64 (≈ 89.6 µM)	64 (≈ 89.6 µM)	64 (≈ 89.6 µM)	128 (≈ 179 µM)	64 (≈ 89.6 µM)	64 (≈ 89.6 µM)	128 (≈ 179 µM)	16 (≈ 22.4 µM)	64 (≈ 89.6 µM)	64 (≈ 89.6 µM)	64 (≈ 89.6 µM)	32 (≈ 44.8 µM)	128 (≈ 179 µM)	128 (≈ 179 µM)	128 (≈ 179 µM)
CCn1cc(C(=O)O)c(=O)c2cc(F)c(N3CCN(Cc4nc5ccccc5n4Cc4cccc(Cl)c4)CC3)cc21	32 (≈ 55.7 µM)	64 (≈ 111 µM)	64 (≈ 111 µM)	8 (≈ 13.9 µM)	8 (≈ 13.9 µM)	1 (≈ 1.74 µM)	8 (≈ 13.9 µM)	4 (≈ 6.97 µM)	2 (≈ 3.48 µM)	2 (≈ 3.48 µM)	16 (≈ 27.9 µM)	2 (≈ 3.48 µM)	2 (≈ 3.48 µM)	4 (≈ 6.97 µM)	64 (≈ 111 µM)
CCn1cc(C(=O)O)c(=O)c2cc(F)c(N3CCN(Cc4nc5ccccc5n4CC)CC3)cc21	1 (≈ 2.09 µM)	128 (≈ 268 µM)	128 (≈ 268 µM)	4 (≈ 8.38 µM)	64 (≈ 134 µM)	32 (≈ 67 µM)	4 (≈ 8.38 µM)	0.5 (≈ 1.05 µM)	8 (≈ 16.8 µM)	0.25 (≈ 0.524 µM)	2 (≈ 4.19 µM)	32 (≈ 67 µM)	4 (≈ 8.38 µM)	8 (≈ 16.8 µM)	32 (≈ 67 µM)
CCn1cc(C(=O)O)c(=O)c2cc(F)c(N3CCN(CNc4nc5ccccc5[nH]4)CC3)cc21	8 (≈ 17.2 µM)	0.5 (≈ 1.08 µM)	2 (≈ 4.31 µM)	1 (≈ 2.15 µM)	8 (≈ 17.2 µM)	4 (≈ 8.61 µM)	2 (≈ 4.31 µM)	2 (≈ 4.31 µM)	0.5 (≈ 1.08 µM)	1 (≈ 2.15 µM)	8 (≈ 17.2 µM)	1 (≈ 2.15 µM)	4 (≈ 8.61 µM)	1 (≈ 2.15 µM)	16 (≈ 34.4 µM)
O=C(O)c1cn(C2CC2)c2cc(N3CCN(CNc4nc5ccccc5[nH]4)CC3)c(F)cc2c1=O	1 (≈ 2.1 µM)	0.25 (≈ 0.525 µM)	1 (≈ 2.1 µM)	1 (≈ 2.1 µM)	4 (≈ 8.39 µM)	16 (≈ 33.6 µM)	1 (≈ 2.1 µM)	1 (≈ 2.1 µM)	0.25 (≈ 0.525 µM)	0.5 (≈ 1.05 µM)	1 (≈ 2.1 µM)	0.5 (≈ 1.05 µM)	1 (≈ 2.1 µM)	8 (≈ 16.8 µM)	4 (≈ 8.39 µM)
O=C(O)c1cn(C2CC2)c2cc(N3CCN(Cc4nc5ccccc5n4Cc4ccc([N+](=O)[O-])cc4)CC3)c(F)cc2c1=O	8 (≈ 13.4 µM)	8 (≈ 13.4 µM)	4 (≈ 6.7 µM)	16 (≈ 26.8 µM)	1 (≈ 1.68 µM)	1 (≈ 1.68 µM)	2 (≈ 3.35 µM)	16 (≈ 26.8 µM)	2 (≈ 3.35 µM)	4 (≈ 6.7 µM)	4 (≈ 6.7 µM)	4 (≈ 6.7 µM)	8 (≈ 13.4 µM)	2 (≈ 3.35 µM)	8 (≈ 13.4 µM)
CCn1cc(C(=O)O)c(=O)c2cc(F)c(N3CCN(Cc4nc5ccc(Cl)cc5[nH]4)CC3)cc21	0.5 (≈ 1.03 µM)	1 (≈ 2.07 µM)	2 (≈ 4.13 µM)	0.5 (≈ 1.03 µM)	8 (≈ 16.5 µM)	2 (≈ 4.13 µM)	32 (≈ 66.1 µM)	0.5 (≈ 1.03 µM)	1 (≈ 2.07 µM)	8 (≈ 16.5 µM)	16 (≈ 33.1 µM)	1 (≈ 2.07 µM)	1 (≈ 2.07 µM)	8 (≈ 16.5 µM)	2 (≈ 4.13 µM)
O=C(O)c1cn(C2CC2)c2cc(N3CCN(Cc4nc5ccccc5n4Cc4ccccc4Cl)CC3)c(F)cc2c1=O	1 (≈ 1.71 µM)	16 (≈ 27.3 µM)	16 (≈ 27.3 µM)	2 (≈ 3.41 µM)	16 (≈ 27.3 µM)	0.5 (≈ 0.853 µM)	8 (≈ 13.7 µM)	2 (≈ 3.41 µM)	4 (≈ 6.83 µM)	4 (≈ 6.83 µM)	0.5 (≈ 0.853 µM)	2 (≈ 3.41 µM)	4 (≈ 6.83 µM)	1 (≈ 1.71 µM)	16 (≈ 27.3 µM)
CCn1cc(C(=O)O)c(=O)c2cc(F)c(N3CCN(Cc4nc5ccccc5n4Cc4ccc(Cl)cc4Cl)CC3)cc21	1 (≈ 1.64 µM)	2 (≈ 3.29 µM)	4 (≈ 6.57 µM)	1 (≈ 1.64 µM)	2 (≈ 3.29 µM)	1 (≈ 1.64 µM)	0.5 (≈ 0.822 µM)	0.25 (≈ 0.411 µM)	0.125 (≈ 0.205 µM)	1 (≈ 1.64 µM)	8 (≈ 13.1 µM)	1 (≈ 1.64 µM)	0.25 (≈ 0.411 µM)	0.5 (≈ 0.822 µM)	4 (≈ 6.57 µM)
